Experimental data reported in patent publication US10508085B2, “Compounds and methods for IDO and TDO modulation, and indications therefor” (Plexxikon Inc., priority 2016, dated 2019).

Assays:
[1] = biological target: T1, Human Tryptophan 2,3-dioxygenase (TDO) (Homo sapiens, UniProt P48775); assay: Human TDO enzymatic assay (kynurenine level); format: biochemical; conditions: 1 nM TDO, 350 μM L-Trp; geometric mean; read-out: TDO GMean: IC50 (μM) (Biochemical Assay)
T1 construct: His tag (N); made in house; host or cells: E. coli
Description: (§1) Human Indoleamine 2,3-dioxygenase (IDO) and Tryptophan 2,3-dioxygenase (TDO) enzymatic assay
(§2) Human IDO or TDO with N-terminal His tag is purified in E. coli. The IDO enzymatic assay is performed using 6 nM IDO and 10 μM L-Trp in the presence of 10 mM ascorbic acid, 5 μM methylene blue, 100 nM catalase and 0.01% Tween 20 in 50 mM sodium phosphate buffer (pH 6.5). 19 μL of above reaction mixture is added to wells of 384 well reaction plate containing […] of various concentrations of test compound or DMSO vehicle and incubated for 20 minutes at room temperature. The TDO enzymatic reaction assay is performed using 1 nM TDO and 350 μM L-Trp in the presence of 10 mM ascorbic acid, 0.4 μM methylene blue, 100 nM catalase and 0.01% Tween 20 in 50 mM sodium phosphate buffer (pH 6.5). 19 μL of above reaction mixture is added to wells of 384 well reaction plate containing 1 μL of various concentrations of test compound or DMSO vehicle and incubated for 70 minutes at room temperature. 16 wells containing all the components of reaction mixture and 5% DMSO serve as high control. 16 well containing all the components except enzyme of reaction mixture and 5% DMSO serves as low control. Both IDO and TDO enzymatic reactions are stopped by addition of […] of 30% TCA and incubated 30 minutes at 50° C. to hydrolyze N-formylkynurenine produced by IDO or TDO to kynurenine. Upon measuring the kynurenine level, the percentage inhibition is calculated at individual concentrations relative to high and low controls. The data is analyzed by using nonlinear regression to generate IC50 values.

[2] = biological target: T2, Human Indoleamine 2,3-dioxygenase (IDO) (Homo sapiens, UniProt P14902); assay: Human IDO enzymatic assay (kynurenine level); format: biochemical; conditions: 6 nM IDO, 10 μM L-Trp; geometric mean; read-out: IDO1 GMean: IC50 (μM) (Biochemical Assay)
T2 construct: His tag (N); made in house; host or cells: E. coli
Description: as §1, §2

T1 sequence (P48775 whole entry): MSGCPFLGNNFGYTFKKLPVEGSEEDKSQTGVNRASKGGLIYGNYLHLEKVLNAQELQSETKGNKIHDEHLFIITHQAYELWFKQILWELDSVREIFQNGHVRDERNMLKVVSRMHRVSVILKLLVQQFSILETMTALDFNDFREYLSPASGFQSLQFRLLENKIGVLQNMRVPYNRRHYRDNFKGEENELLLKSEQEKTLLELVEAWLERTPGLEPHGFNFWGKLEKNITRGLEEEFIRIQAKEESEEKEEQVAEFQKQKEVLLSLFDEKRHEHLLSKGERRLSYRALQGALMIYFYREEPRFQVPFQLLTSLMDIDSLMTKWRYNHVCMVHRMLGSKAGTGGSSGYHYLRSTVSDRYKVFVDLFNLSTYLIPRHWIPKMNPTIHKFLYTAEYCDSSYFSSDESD
T2 sequence (P14902 whole entry): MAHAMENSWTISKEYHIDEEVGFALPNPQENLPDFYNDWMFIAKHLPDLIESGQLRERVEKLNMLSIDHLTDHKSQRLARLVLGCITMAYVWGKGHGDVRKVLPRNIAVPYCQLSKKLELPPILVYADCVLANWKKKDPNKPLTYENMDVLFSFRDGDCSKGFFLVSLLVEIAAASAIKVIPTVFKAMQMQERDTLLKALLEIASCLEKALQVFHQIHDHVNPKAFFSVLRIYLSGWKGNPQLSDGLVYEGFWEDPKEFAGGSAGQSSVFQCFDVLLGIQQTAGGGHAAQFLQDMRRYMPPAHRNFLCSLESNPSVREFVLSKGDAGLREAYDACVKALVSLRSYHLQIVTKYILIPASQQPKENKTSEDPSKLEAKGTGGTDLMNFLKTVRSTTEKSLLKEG

| IC50 [1] [µM] | IC50 [2] [µM] | Compound |
| --- | --- | --- |
| 0.0001 to 10 | 0.0001 to 10 | CC(C)(C1CCN(C(=O)NC2CCC(F)(F)CC2)CC1)[C@H](O)c1cc(Cl)cc2cn[nH]c12 [Compound P-0588, (S)-4-(1-(5-chloro-1H-indazol-7-yl)-1-hydroxy-2-methylpropan-2-yl)-N-(4,4-difluorocyclohexyl) piperidine-1-carboxamide] |
| 0.0001 to 10 | 0.0001 to 10 | CC(C)(C1CCN(C(=O)N[C@H]2CCOC2)CC1)[C@H](O)c1cc(Cl)cc2cn[nH]c12 [Compound P-0589, 4-((S)-1-(5-chloro-1H-indazol-7-yl)-1-hydroxy-2-methylpropan-2-yl)-N-((S)-tetrahydrofuran-3-yl)piperidine-1-carboxamide] |
| 0.0001 to 10 | 0.0001 to 10 | CC(C)(C1CCN(C(=O)NCc2ccc(C#N)nc2)CC1)[C@H](O)c1cc(Cl)cc2cn[nH]c12 [Compound P-0590, (S)-4-(1-(5-chloro-1H-indazol-7-yl)-1-hydroxy-2-methylpropan-2-yl)-N-((6-cyanopyridin-3-yl)methyl)piperidine-1-carboxamide] |
| 0.0001 to 10 | 0.0001 to 10 | CC(C)(C1CCN(C(=O)N[C@@H]2CC[C@@H](O)C2)CC1)[C@H](O)c1cc(Cl)cc2cn[nH]c12 [Compound P-0591, 4-((S)-1-(5-chloro-1H-indazol-7-yl)-1-hydroxy-2-methylpropan-2-yl)-N-((1R,3R)-3-hydroxycyclopentyl) piperidine-1-carboxamide] |
| 0.0001 to 10 | 0.0001 to 10 | CC(C)(C1CCN(C(=O)NC2CC(F)(F)C2)CC1)[C@H](O)c1cc(Cl)cc2cn[nH]c12 [Compound P-0592, (S)-4-(1-(5-chloro-1H-indazol-7-yl)-1-hydroxy-2-methylpropan-2-yl)-N-(3,3-difluorocyclobutyl) piperidine-1-carboxamide] |
| 0.0001 to 10 | 0.0001 to 10 | CC(C)(C1CCN(C(=O)N[C@@H]2CCOC2)CC1)[C@H](O)c1cc(Cl)cc2cn[nH]c12 [Compound P-0593, 4-((S)-1-(5-chloro-1H-indazol-7-yl)-1-hydroxy-2-methylpropan-2-yl)-N-((R)-tetrahydrofuran-3-yl)piperidine-1-carboxamide] |

The next lines start with the compound.

| Compound | IC50 [1] [µM] | IC50 [2] [µM] |
| --- | --- | --- |
| CNC(=O)CNC(=O)N1CCC(C(C)(C)[C@H](O)c2cc(Cl)cc3cn[nH]c23)CC1 [Compound P-0583, (S)-4-(1-(5-chloro-1H-indazol-7-yl)-1-hydroxy-2-methylpropan-2-yl)-N-(2-(methylamino)-2-oxoethyl)piperidine-1-carboxamide] | 0.0001 to 10 | 0.0001 to 10 |
| CC(C)(C1CCN(C(=O)NCc2ccc(C#N)cc2)CC1)[C@H](O)c1cc(Cl)cc2cn[nH]c12 [Compound P-0584, (S)-4-(1-(5-chloro-1H-indazol-7-yl)-1-hydroxy-2-methylpropan-2-yl)-N-(4-cyanobenzyl) piperidine-1-carboxamide] | 0.0001 to 10 | 0.0001 to 10 |
| COc1ccc(CNC(=O)N2CCC(C(C)(C)[C@H](O)c3cc(Cl)cc4cn[nH]c34)CC2)cn1 [Compound P-0585, (S)-4-(1-(5-chloro-1H-indazol-7-yl)-1-hydroxy-2-methylpropan-2-yl)-N-((6-methoxypyridin-3-yl)methyl)piperidine-1-carboxamide] | 0.0001 to 10 | 0.0001 to 10 |
| CN(C)c1ccc(CNC(=O)N2CCC(C(C)(C)[C@H](O)c3cc(Cl)cc4cn[nH]c34)CC2)cn1 [Compound P-0586, (S)-4-(1-(5-chloro-1H-indazol-7-yl)-1-hydroxy-2-methylpropan-2-yl)-N-((6-(dimethylamino)pyridin-3-yl)methyl)piperidine-1-carboxamide] | 0.0001 to 10 | 0.0001 to 10 |
| CC(C)(C1CCN(C(=O)NCC#N)CC1)[C@H](O)c1cc(Cl)cc2cn[nH]c12 [Compound P-0587, (S)-4-(1-(5-chloro-1H-indazol-7-yl)-1-hydroxy-2-methylpropan-2-yl)-N-(cyanomethyl) piperidine-1-carboxamide] | 0.0001 to 10 | 0.0001 to 10 |
